In series [1] the test system is tumors. The series is described as follows: Antitumor activity (general statement).
For series [2], the system named is Vesicular Stomatitis virus, strain Indiana. The class given is cell-based. The following applies: L929 cells, strain Indiana; two determinations.
Series [3] has as its system enzyme which hydrolyzes S-adenosyl-L-homocysteine (AdoHcy). The note with it: literature; cited from earlier work.
For series [4], the system named is phosphorylation and deamination. The following applies: cited from earlier work.
Series [5] has as its system CTP synthesase. As to the kind of experiment: Inhibition of CTP synthesis (CTP synthesase). Format: biochemical.
Series [6] has as its system L1210 leukemia. The series is described as follows: In vivo antitumor test, L1210 leukemia in mice. The following applies: Table IV, QD1-9, terminated day 60.
The subject of series [7] is LOX Melanoma. As to the kind of experiment: Human tumor xenograft in athymic mice, LOX melanoma (intraperitoneal). The note with it: for % ILS: Table IV, QD1-9. Background: Xenograft models place foreign cells or tissue in a host animal.
Series [8] concerns MX-1 Mammary. As to the kind of experiment: Human tumor xenograft in athymic mice, MX-1 mammary (subrenal capsule). The note with it: for % tumor weight inhibition: Table IV, QD1-9, day 0 to day 11.
Series [9] concerns L1210 leukemia. The note with it: cited from earlier work; for increase in life span: literature values.
In series [10] the test system is Herpes simplex type 1 (TK+), strain E-377. The series is described as follows: Cytopathogenic inhibition test, HSV-1 TK+. Format: cell-based. The following applies: for IC50: Human alphaherpesvirus 1, inhibition of virus-induced cytopathogenic effects, read-out: ID50 (the source's name); for IC50 / VR (virus rating): Vero cells, strain E-377.
Series [11] deals with Herpes simplex type 1 (TK-), strain HF. As to the kind of experiment: microbe, parasite or virus in culture. The class given is cell-based.
Series [12] concerns Herpes simplex type 2, strain MS. As to the kind of experiment: Cytopathogenic inhibition test, HSV-2. The class given is cell-based. The following applies: Vero cells, strain MS; for IC50: Human alphaherpesvirus 2, inhibition of virus-induced cytopathogenic effects, read-out: ID50 (the source's name). For orientation: Protection from cytopathic effect is a common read-out in antiviral testing.

For series [13], the system named is vaccinia virus (IHD strain). Format: in vivo, mouse (CD-I). The note with it: Ara-A 300 mg/kg, QD 1-7 subcutaneous; PBS control 45.8.
The subject of series [14] is Vaccinia, strain Lederle CA. As to the kind of experiment: microbe, parasite or virus in culture. The class given is cell-based.
Series [15] relates to L1210 tumor cells. The note with it: literature; cited from earlier work.
Series [16] has as its system H.Ep.-2 cells. The note with it: literature; cited from earlier work.
The test system of series [17] is adenosine deaminase. The note with it: literature; cited from earlier work.
For series [18], the system named is quiescent normal cells; malignant cell lines. The following applies: subtoxic concentrations; literature; cited from earlier work.
In series [19] the test system is Herpes simplex type 1 (TK-), strain HF. The note with it: literature; cited from earlier work.
Series [20] deals with Rhinovirus 1A. The following applies: literature; cited from earlier work.
For series [21], the system named is influenza viruses. The note with it: literature; cited from earlier work.
For series [22], the system named is several DNA viruses. The following applies: literature; cited from earlier work.
The test system of series [23] is two other RNA viruses. The following applies: literature; cited from earlier work.
In series [24] the test system is Cytomegalovirus, strain AD 169. As to the kind of experiment: Cytomegalovirus (CMV) Yield Reduction Assay. The class given is cell-based.
Series [25] deals with Varicella-Zoster virus, isolate DM625. The series is described as follows: Varicella-Zoster Virus (VZV) Plaque Reduction Assay. The class given is cell-based. The note with it: Human alphaherpesvirus 3, 144 h, Huf cells. (Plaque reduction counts the foci of infection that form in a cell layer.)
The subject of series [26] is MRC5 (diploid human embryonic lung cells). The series is described as follows: Toxicity to MRC5 host cells (gross cell morphology) in the CMV assay. The following applies: 320 μg/ml.
In series [27] the test system is cells. The following applies: literature; cited from earlier work.
Series [28] concerns Janapese Encephalitis virus, strain Najayama. The series is described as follows: Antiviral test in vitro, Japanese encephalitis virus. Format: cell-based, Japanese encephalitis virus; host Vero cells.
Series [29] deals with Punta Toro virus, strain Adames. As to the kind of experiment: microbe, parasite or virus in culture. The class given is cell-based, Punta Toro virus; host Vero cells.
Series [30] relates to Influenza (Hong Kong), strain A2 /Aichi/2/68. The series is described as follows: microbe, parasite or virus in culture. Format: cell-based, Influenza virus; host MDCK (Madin Darby canine kidney cells).
In series [31] the test system is Yellow Fever virus, strain Asibi. As to the kind of experiment: microbe, parasite or virus in culture. Format: cell-based, Yellow Fever virus; host Vero cells.
The subject of series [32] is tumors. The following applies: literature; cited from earlier work.

As usually defined, the inhibition is how much of the control response was suppressed.

Structures are written as SMILES. In brackets after ≈: the same amount, converted by molar mass. Several values for one entry are separate records, joined by “and”; a condition that tells them apart may be missing. Equal values may be shown once. Read-outs that look alike come from different tables or passages of the source.

On to `Nc1ccn([C@@H]2C=C(CO)[C@@H](O)[C@@H]2O)c(=O)n1`, for which, in series [1], the antitumor activity result is “complete lack of antitumor activity”.
Take `Nc1nccc2c1ncn2[C@@H]1C[C@H](CO)[C@@H](O)[C@H]1O` [3-Deazaaristeromycin, 3-deazaaristeromycin, reference compound]: the “VR (virus rating)” value in series [2] is 2.1 and 3.0. Besides, the “inhibition of AdoHcy hydrolase” value in series [3] was “very potent and specific inhibitor”. The phosphorylation and deamination result in series [4] was “resistance towards phosphorylation and deamination”.
For `O=C1C=CN([C@@H]2O[C@H](CO)[C@@H](O)[C@H]2O)C(=O)C1` [3-Deazauridine, 3-deazauridine, reference compound], the “inhibition of CTP synthesis” value in series [5] (result in words) is listed as “powerful inhibitors of CTP synthesis”. In addition, the “% ILS” value came out at 72% in series [6] (3-Deazauridine 25 mg/kg); 61% in series [6] (3-Deazauridine 50 mg/kg); 80% in series [6] (3-Deazauridine 100 mg/kg); 5% in series [7] (3-Deazauridine 200 mg/kg); 4% in series [7] (3-Deazauridine 300 mg/kg). The “tumor burden at the end of treatment” value in series [7] (in vivo) was “three-log10 increase in tumor burden”. Further, the result in series [7] (result in words) and in series [8] (result in words) was inactive. The “% tumor weight inhibition” value in [8] (3-Deazauridine 200 mg/kg) was found to be 11%; in [8] (3-Deazauridine 300 mg/kg) it was 64%.
`Nc1nccc2c1ncn2[C@@H]1O[C@H](CO)[C@@H](O)[C@H]1O` [3-deazaadenosine]: the phosphorylation and deamination result in series [4] (literature) was “resistance towards phosphorylation and deamination”.
Turning to `Nc1ccn(C2CC(CO)C(O)C2O)c(=O)n1` (stereo not drawn) ["ara"-analogue], in [9], the “increase in life span” value is recorded as 104%. In [9] (literature, J. Pharm. Chem., 68, 668 (1979)), the “activity against L1210 leukemia” value is “activity”.
With `Nc1nc2c(ncn2COCCO)c(=O)[nH]1` [Acyclovir], the IC50 in series [10] is 0.7 µg/mL (≈ 3.11 µM); in series [12], 5.3 µg/mL (≈ 23.5 µM). The results for the “VR (virus rating)” value in series [10] and in [12] were 6.7 and 4.5, respectively. The antiviral activity entry is “more active that CPE-C” in series [10] (result in words) and “inactive” in [11] (result in words).
Turning to `Nc1ncnc2c1ncn2[C@@H]1O[C@H](CO)[C@@H](O)[C@@H]1O` [Ara-A, arabinosyl adenine, reference compound], the “Pox Count (mean value, 20 mice)” value in series [13] worked out at 2.8. Further, the IC50 was determined as 13.6 µg/mL (≈ 50.9 µM) in series [10]; 2.1 µg/mL (≈ 7.86 µM) in series [11] (Human alphaherpesvirus 1, Vero, in Chlorocebus sabaeus, read-out: ID50, Vero cells, strain HF, inhibition of virus-induced cytopathogenic effects, two determinations); 49.9 µg/mL (≈ 187 µM) in series [12]; 9.8 µg/mL (≈ 36.7 µM) in series [14] (Orthopoxvirus vaccinia, Vero, in Chlorocebus sabaeus, read-out: ID50). Besides, the “VR (virus rating)” value in [10] was 1.8; in [11] (Vero cells, strain HF, two determinations), 3.3 and 2.9; in [12], 1.3; in series [14] (Vero cells, strain Lederle CA), 3.1.
On to `Nc1ncnc2c1ncn2[C@@H]1C[C@H](CO)[C@@H](O)[C@H]1O` [C-Ado], for which the “activity in the in vivo mouse L1210 model” value in [9] (literature) is listed as “inactivity in the in vivo mouse L1210 model system”. In addition, the cytotoxicity entry in series [15] was “highly cytotoxic”. Moreover, the cytotoxicity entry in [16] was “highly cytotoxic”. For the same compound, the “affinity for adenosine deaminase relative to adenosine” value in series [17] was “a hundredfold lower”. Also, in [18], the “effect on malignant cell lines” value is “inhibited growth” and the “effect on quiescent normal cells” value was “induced cell proliferation”.
As to `Nc1ccn([C@@H]2C[C@H](CO)[C@@H](O)[C@H]2O)c(=O)n1` [Carbodine], in series [9], the “increase in life span” value was 82%. Further, in [19], the “potency against HSV-1 TK- vs TK+” value is on record as “more potent against a strain of the HSV-1 virus deficient in its ability to induce thymidine kinase”. The antiviral activity entry is listed as “Slight carbodine activity” in [20], “very effective” in [21], “Good activity” in [22] and “Slight carbodine activity” in [23].
On to `Nc1nc2c(ncn2COC(CO)CO)c(=O)[nH]1` [DHPG, 9(1,3-Dihydroxy-2-propoxymethyl)guanine, reference compound], for which the log reduction at 1 µg/mL in series [24] (Human betaherpesvirus 5, 144 h, 1.0 μg/ml, MRC5 cells, read-out: Reduction in Virus Yield) is 1.1. Moreover, in [24] (Human betaherpesvirus 5, 144 h, 10 μg/ml, MRC5 cells, read-out: Reduction in Virus Yield), the log reduction at 10 µg/mL was 3.8. The log reduction at 32 µg/mL in series [24] (Human betaherpesvirus 5, 144 h, 32 μg/ml, MRC5 cells, read-out: Reduction in Virus Yield) is 5.3. In [24] (Human betaherpesvirus 5, 144 h, 100 μg/ml, MRC5 cells, read-out: Reduction in Virus Yield), the log reduction at 100 µg/mL was 5.3. In [24] (Human betaherpesvirus 5, 144 h, 320 μg/ml, MRC5 cells, read-out: Reduction in Virus Yield), the log reduction at 320 µg/mL was determined as 5.3. In series [24] (result in words), the antiviral activity entry was “superior”. The compound further yielded an inhibition at 1 µg/mL in series [25] (1.0 μg/ml) of 44%. For the same compound, in series [25] (3.2 μg/ml), at 3.2 µg/mL the inhibition was 46%. Further, the inhibition at 10 µg/mL in [25] (10 μg/ml) was 69%. In series [25] (32 μg/ml), this compound yielded an inhibition at 32 µg/mL of 85%. In series [25] (100 μg/ml), this compound showed an inhibition at 100 µg/mL of 100%. In addition, in [25] (320 μg/ml), the inhibition at 320 µg/mL was 100%. The “Host cell toxicity (gross cell morphology)” value in series [26] was “Very slightly toxic”.
`Nc1ncnc2c1ncn2[C@@H]1C=C(CO)[C@@H](O)[C@H]1O` [Neplanocin A, 9[(1'R,2'S,3'R)-4'-Hydroxymethyl-2',3'dihydroxy-4 cyclopenten-1'-yl]adenine]: the “inhibition of AdoHcy hydrolase” value in series [3] is on record as “potent inhibitor”. The “side effects including cytotoxicity” value in series [27] is recorded as “multiplicity of side effects including cytotoxicity”. Also, the phosphorylation and deamination result in [4] (literature) is “readily phosphorylated”.
Take `NC(=O)c1ncn([C@@H]2O[C@H](CO)[C@@H](O)[C@H]2O)n1` [Ribavirin, reference compound]: the IC50 in series [28] (Japanese encephalitis virus, Vero, read-out: ID50) worked out at 3 µg/mL (≈ 12.3 µM); in series [29] (Punta Toro virus, Vero, read-out: ID50) it was 20.1 µg/mL (≈ 82.3 µM); in [30] (MDCK, in Canis lupus familiaris, read-out: ID50) it was 18.7 µg/mL (≈ 76.6 µM). In addition, the “VR (virus rating)” value was found to be 2.4 in series [28] (Vero cells, strain Najayama); 1.8 in series [29]; 3.6 in [30].
Regarding `c1c[se]cn1` [Selenazole, reference compound], the “VR (virus rating)” value in series [31] (Vero cells, strain Asibi) is on record as 2.4. Also, the IC50 in [31] (Yellow fever virus, Vero, read-out: ID50) amounted to 1.8 µg/mL (≈ 13.6 µM). Moreover, in series [31] (minimum toxic drug concentration / ID50, Vero cells), the “TI (therapeutic index)” value came out at 0.6.
With `Nc1ccn([C@@H]2O[C@H](CO)[C@@H](O)[C@@H]2O)c(=O)n1` [ara-C, cytosine arabinoside], in [32], the “activity against human and animal tumors” value was “well-known activity”.
Take `Nc1ccn([C@@H]2C=C(COP(=O)(O)OP(=O)(O)OP(=O)(O)O)[C@@H](O)[C@H]2O)c(=O)n1` [triphosphate metabolite of CPE-C]: the “inhibition of CTP-synthesase” value in series [5] (triphosphate isolated from L1210 cell extracts) is “responsible for the inhibition of CTP-synthesase”.

(Values after patent US4975434A, “Antiviral and anticancer cyclopentenyl cytosine” (priority 1989, dated 1990).)
